Data reported in patent publication US20070104644A1, “Inhibitor imaging agents” (priority 2003, published 2007).

Experiments:
MMP-9 = MMP-9 (Homo sapiens, UniProt P14780); test: MMP-9 colorimetric assay kit (Biomol AK-410); format: biochemical
Method: (§1) Compounds were screened using the following commercially available Biomol assay kits: • MMP-1 colorimetric assay kit—Catalogue number AK-404, • MMP-2 colorimetric assay kit—Catalogue number AK-408, • MMP-8 calorimetric assay kit—Catalogue number AK-414, • MMP-9 calorimetric assay kit—Catalogue number AK-410, • MMP-12 colorimetric assay kit—Catalogue number AK-402, Which are available from Affiniti Research Products Ltd. (Palatine House, Matford Court, Exeter, EX2 8NL, UK).
(§2) Inhibitors were provided in powdered form, and stored at 4° C. For each inhibitor a 1 mM stock solution in DMSO was prepared, dispensed into 20 μl aliquots and these aliquots stored at −20° C. The stock solution was diluted to give 8 inhibitor concentrations (recommended: 50 μM, 5 μM, 500 nM, 50 nM, 5 nM, 500 pM, 50 pM and 5 pM). Dilutions were made in the kit assay buffer. A five-fold dilution of the inhibitor stocks is made on addition to the assay wells, therefore final concentration range was from 10 μM to 1 pM.
(§3) Details are provided with the commercial kit, but can be summarised as follows: • Prepare test compound dilutions as above, • Add assay buffer to plate, • Add test compounds to plate • Prepare standard kit inhibitor NNGH (see kit for dilution factor) • Add NNGH to control inhibitor wells • Prepare MMP enzyme (see kit for dilution factor) • Add MMP to plate • Incubate plate at 37° C. for ˜15 min • Prepare thiopeptolide substrate (see kit for dilution factor) • Add substrate to plate • Count every 2 min for 1 hr, 37° C., 414 nm on a Labsystems iEMS plate reader (for MMP-1 count every 30 seconds for 20 minutes).

MMP-2 = target: T1, MMP-2 (Homo sapiens, UniProt P08253); test: MMP-2 colorimetric assay kit (Biomol AK-408); format: biochemical
T1 sequence (P08253 110-660): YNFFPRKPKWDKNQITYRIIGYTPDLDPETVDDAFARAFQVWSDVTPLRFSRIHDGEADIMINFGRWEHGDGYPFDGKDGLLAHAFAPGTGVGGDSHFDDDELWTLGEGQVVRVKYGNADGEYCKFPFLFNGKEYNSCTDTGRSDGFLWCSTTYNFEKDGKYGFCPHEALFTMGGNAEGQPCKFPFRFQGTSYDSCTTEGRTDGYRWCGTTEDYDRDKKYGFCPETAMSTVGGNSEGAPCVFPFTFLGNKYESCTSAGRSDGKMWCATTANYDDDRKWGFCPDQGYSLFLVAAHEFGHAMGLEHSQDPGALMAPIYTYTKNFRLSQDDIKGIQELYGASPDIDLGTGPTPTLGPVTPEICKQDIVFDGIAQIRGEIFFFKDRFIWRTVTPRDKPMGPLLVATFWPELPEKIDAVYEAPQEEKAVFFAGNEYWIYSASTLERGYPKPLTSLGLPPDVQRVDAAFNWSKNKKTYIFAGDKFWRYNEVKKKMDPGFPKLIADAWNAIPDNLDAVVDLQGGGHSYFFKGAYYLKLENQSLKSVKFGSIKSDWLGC
Method: as §1, §2, §3

[1] = system: ApoE −/− mice, carotid artery; test: Biodistribution in ApoE ligation model of atherosclerosis (ligated and sham); format: in vivo
Description: ApoE −/− mice are transgenic knock-out mice, which lack the ApoE gene, and are therefore unable to regulate their plasma cholesterol levels. As a consequence ApoE mice develop atherosclerotic lesions, a process which is accelerated with feeding of high fat diet. Further acceleration of lesion development can be achieved by ligating the carotid artery, resulting in advanced lesion formation within 4 weeks of surgery and high fat diet feeding.
Two controls have been used for these experiments: (1) ApoE sham animals in which the mice undergo the same surgical intervention but the sture is only passed beneath the carotid and then removed and, (2) C57BL/6 ligtaed animals which undergo the same surgical ligation and high fat feeding as the ApoE ligated mice. Literature reports have stated that these animals do have some level of tissue remodelling, but with lower active MMP levels [Ivan et al, Circulation, 105, 2686-2691 (2002)].

[2] = system: Lewis lung carcinoma (LLC) tumour; test: Biodistribution in LLC tumour model in vivo; set-up: species or system C57BL/6 mice
Method: 1×10^6 Lewis lung carcinoma (LLC) cells are injected subcutaneously into right inner thigh of C57BL/6 mice. Tumours were allowed to grow for 15 days prior to biodistribution being carried out.
Biodistribution studies were performed in the LLC tumour model.
Biodistribution was performed in the LLC tumour model of Example 23 with Compounds 46B and 48B.

MMP-8 = MMP-8 (Homo sapiens, UniProt P22894); test: MMP-8 colorimetric assay kit (Biomol AK-414); format: biochemical
Method: as §1, §2, §3

MMP-1 = target: T2, MMP-1 (Homo sapiens, UniProt P03956); test: MMP-1 colorimetric assay kit (Biomol AK-404); format: biochemical
T2 sequence (P03956 100-469): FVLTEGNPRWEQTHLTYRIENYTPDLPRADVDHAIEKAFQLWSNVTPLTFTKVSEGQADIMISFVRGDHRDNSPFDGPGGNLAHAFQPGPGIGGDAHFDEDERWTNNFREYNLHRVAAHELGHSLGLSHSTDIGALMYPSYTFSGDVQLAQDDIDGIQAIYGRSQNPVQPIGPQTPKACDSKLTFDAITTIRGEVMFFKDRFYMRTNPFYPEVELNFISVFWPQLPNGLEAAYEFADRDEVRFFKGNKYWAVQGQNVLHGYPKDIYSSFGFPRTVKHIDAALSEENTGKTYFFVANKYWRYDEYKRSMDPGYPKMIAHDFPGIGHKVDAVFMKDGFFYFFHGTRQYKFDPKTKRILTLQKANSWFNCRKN
Method: as §1, §2, §3

[3] = ApoE Ligated, 5 min post injection
[4] = ApoE Ligated, 60 min post injection
[5] = ApoE Sham, 60 min post injection

MMP-9, sequence (P14780 94-707): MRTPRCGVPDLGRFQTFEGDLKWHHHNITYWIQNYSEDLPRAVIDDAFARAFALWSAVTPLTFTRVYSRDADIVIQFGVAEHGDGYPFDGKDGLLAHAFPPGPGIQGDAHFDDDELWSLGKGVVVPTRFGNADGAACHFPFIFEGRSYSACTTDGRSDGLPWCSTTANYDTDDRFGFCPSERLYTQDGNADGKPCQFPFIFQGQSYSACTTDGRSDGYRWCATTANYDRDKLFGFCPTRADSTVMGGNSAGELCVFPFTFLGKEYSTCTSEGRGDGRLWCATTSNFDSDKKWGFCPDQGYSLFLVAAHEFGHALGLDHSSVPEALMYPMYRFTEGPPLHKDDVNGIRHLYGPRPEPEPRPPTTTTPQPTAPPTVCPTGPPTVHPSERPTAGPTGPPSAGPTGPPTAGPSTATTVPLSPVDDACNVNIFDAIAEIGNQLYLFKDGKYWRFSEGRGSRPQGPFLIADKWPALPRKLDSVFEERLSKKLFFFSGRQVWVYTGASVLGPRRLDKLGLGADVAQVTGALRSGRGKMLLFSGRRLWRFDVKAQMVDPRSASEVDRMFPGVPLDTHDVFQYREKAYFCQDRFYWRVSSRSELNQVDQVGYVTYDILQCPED
MMP-8, sequence (P22894 101-467): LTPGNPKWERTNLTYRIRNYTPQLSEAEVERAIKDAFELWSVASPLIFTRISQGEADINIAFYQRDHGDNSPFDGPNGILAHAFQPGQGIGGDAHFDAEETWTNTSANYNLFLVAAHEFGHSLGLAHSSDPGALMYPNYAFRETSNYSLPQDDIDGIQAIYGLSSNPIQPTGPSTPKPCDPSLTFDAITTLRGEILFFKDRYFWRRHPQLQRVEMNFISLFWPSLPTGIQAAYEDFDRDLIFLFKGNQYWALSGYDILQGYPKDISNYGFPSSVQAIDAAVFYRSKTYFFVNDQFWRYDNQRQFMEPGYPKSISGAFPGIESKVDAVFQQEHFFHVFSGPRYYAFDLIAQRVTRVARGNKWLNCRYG

`NCCCC[C@H](NC(=O)CCN(C1(C(=O)NO)CCCC1)S(=O)(=O)c1ccc(Oc2ccc(F)cc2)cc1)C(=O)N[C@@H](CCCCN)C(=O)N[C@@H](CCCCN)C(=O)N[C@@H](CCCCN)C(=O)N[C@@H](CCCCN)C(=O)NCCOCCOCCOCCNC(=O)COCC(=O)N[C@@H](Cc1ccc(O)c(I)c1)C(N)=O` [Compound 42] gave a Ki (MMP-9) of 0.585 nM and a Ki (MMP-2) of 2.19 nM.
In the case of `NC(=O)[C@H](CCCCNC(=O)CON=Cc1ccc([18F])cc1)NC(=O)CCOCCOCCOCCOCCOCCOCCOCCOCCOCCOCCOCCNC(=O)CCOCCOCCOCCOCCOCCOCCOCCOCCOCCOCCOCCNC(=O)CCN(C1(C(=O)NO)CCCC1)S(=O)(=O)c1ccc(Oc2ccc(F)cc2)cc1` [Compound 48B], the “% ID/G Carotid, mean” value [1, 3] is reported as 12.01 % ID/G, the “Carotid/Blood, mean” value [1, 3] is reported as 0.40 and the “Carotid/Heart, mean” value [1, 3] is reported as 1.27. The “Carotid/Lung, mean” value [1, 3] was 0.75, the “% ID/G Carotid, mean” value [1, 4] was 10.34 % ID/G and the “Carotid/Blood, mean” value [1, 4] was 0.96. The “Carotid/Heart, mean” value [1, 4] was 2.71, the “Carotid/Lung, mean” value [1, 4] was 1.42 and the “% ID/G Carotid, mean” value [1, 5] was 2.37 % ID/G. The “Carotid/Blood, mean” value [1, 5] was 0.2, the “Carotid/Heart, mean” value [1, 5] was 0.81 and the “Carotid/Lung, mean” value [1, 5] was 0.25. The “% ID Urinary (urinary excretion), mean” value ([2]; 5 min post injection) was 0.24 % ID, the “% ID/g Tumour, mean” value ([2]; 5 min post injection) was 2.53 % ID/g and the “Tumour/Blood, mean” value ([2]; 5 min post injection) was 0.11. The “Tumour/Heart, mean” value ([2]; 5 min post injection) was 0.40, the “Tumour/Lung, mean” value ([2]; 5 min post injection) was 0.26 and the “Tumour/Muscle, mean” value ([2]; 5 min post injection) was 1.55. The “% ID Urinary (urinary excretion), mean” value ([2]; 30 min post injection) was 15.29 % ID, the “% ID/g Tumour, mean” value ([2]; 30 min post injection) was 2.33 % ID/g and the “Tumour/Blood, mean” value ([2]; 30 min post injection) was 0.24. The “Tumour/Heart, mean” value ([2]; 30 min post injection) was 0.84, the “Tumour/Lung, mean” value ([2]; 30 min post injection) was 0.47 and the “Tumour/Muscle, mean” value ([2]; 30 min post injection) was 2.92. The “% ID Urinary (urinary excretion), mean” value ([2]; 60 min post injection) was 56.89 % ID, the “% ID/g Tumour, mean” value ([2]; 60 min post injection) was 1.81 % ID/g and the “Tumour/Blood, mean” value ([2]; 60 min post injection) was 0.51. The “Tumour/Heart, mean” value ([2]; 60 min post injection) was 1.69, the “Tumour/Lung, mean” value ([2]; 60 min post injection) was 0.95 and the “Tumour/Muscle, mean” value ([2]; 60 min post injection) was 4.40. The “% ID Urinary (urinary excretion), mean” value ([2]; 120 min post injection) was 59.33 % ID, the “% ID/g Tumour, mean” value ([2]; 120 min post injection) was 1.62 % ID/g and the “Tumour/Blood, mean” value ([2]; 120 min post injection) was 0.41. For the same compound, the “Tumour/Heart, mean” value ([2]; 120 min post injection) was 1.52, the “Tumour/Lung, mean” value ([2]; 120 min post injection) was 0.77 and the “Tumour/Muscle, mean” value ([2]; 120 min post injection) was 3.55.
In the case of `NC(=O)[C@H](CCCCNC(=O)CON=Cc1ccc(F)cc1)NC(=O)CCOCCOCCOCCOCCOCCOCCOCCOCCOCCOCCOCCNC(=O)CCOCCOCCOCCOCCOCCOCCOCCOCCOCCOCCOCCNC(=O)CCN(C1(C(=O)NO)CCCC1)S(=O)(=O)c1ccc(Oc2ccc(F)cc2)cc1` [Compound 48], the Ki (MMP-8) is reported as 0.5 nM, the Ki (MMP-1) is reported as 33.3 nM and the Ki (MMP-9) is reported as 0.2 nM.
